Where two headings read alike, the source gives them in different places.
Experiments:
[1] = assay type: in vivo, human
[2] = ulcerative colitis phase IIb/III, cited from earlier work
[3] = target: T1, organic cation transporter 2 (OCT2) (Homo sapiens, UniProt O15244); test: In vitro transporter inhibition: OCT2; assay type: in vitro ADME; settings: data on file at Gilead Sciences, Inc.
T1 sequence (O15244 1-555): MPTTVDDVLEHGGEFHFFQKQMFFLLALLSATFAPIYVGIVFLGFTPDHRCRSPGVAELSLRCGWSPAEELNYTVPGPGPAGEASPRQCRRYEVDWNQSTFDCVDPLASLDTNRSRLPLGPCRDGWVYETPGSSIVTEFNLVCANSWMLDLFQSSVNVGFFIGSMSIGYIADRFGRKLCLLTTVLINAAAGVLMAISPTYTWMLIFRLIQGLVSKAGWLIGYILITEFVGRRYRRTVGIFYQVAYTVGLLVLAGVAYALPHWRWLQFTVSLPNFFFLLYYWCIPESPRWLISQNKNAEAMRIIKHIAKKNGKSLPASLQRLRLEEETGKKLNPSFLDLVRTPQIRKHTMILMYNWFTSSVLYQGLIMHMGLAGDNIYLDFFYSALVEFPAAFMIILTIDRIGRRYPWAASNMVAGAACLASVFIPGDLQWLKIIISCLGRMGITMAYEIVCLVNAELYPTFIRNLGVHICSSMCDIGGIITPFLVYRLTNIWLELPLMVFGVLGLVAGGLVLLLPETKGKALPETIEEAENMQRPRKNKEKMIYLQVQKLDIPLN

[4] = no reference given; cited from earlier work
[5] = 200 mg and 100 mg once‐daily; patients with active rheumatoid arthritis; phase III; cited from earlier work
[6] = system: carboxylesterase 2 (CES2); settings: cited from earlier work
JAK1 = settings: whole blood and cellular assays; cited from earlier work
[7] = assay type: in vivo, human; remark: listed apart in the source
[8] = system: breast cancer resistance protein; settings: in vitro; at clinically relevant concentrations; cited from earlier work
Safety assessments = assay type: in vivo, human; settings: for subjects with at least one graded laboratory abnormality: majority grade 1 or 2
MATE2K = MATE2K (Homo sapiens, UniProt Q86VL8); test: In vitro transporter inhibition: MATE2K; assay type: in vitro ADME; settings: data on file at Gilead Sciences, Inc.
MATE1 [9] = target: T2, MATE1 (Homo sapiens, UniProt Q96FL8); test: In vitro transporter inhibition: MATE1; assay type: in vitro ADME; settings: data on file at Gilead Sciences, Inc.
T2 sequence (Q96FL8 1-570): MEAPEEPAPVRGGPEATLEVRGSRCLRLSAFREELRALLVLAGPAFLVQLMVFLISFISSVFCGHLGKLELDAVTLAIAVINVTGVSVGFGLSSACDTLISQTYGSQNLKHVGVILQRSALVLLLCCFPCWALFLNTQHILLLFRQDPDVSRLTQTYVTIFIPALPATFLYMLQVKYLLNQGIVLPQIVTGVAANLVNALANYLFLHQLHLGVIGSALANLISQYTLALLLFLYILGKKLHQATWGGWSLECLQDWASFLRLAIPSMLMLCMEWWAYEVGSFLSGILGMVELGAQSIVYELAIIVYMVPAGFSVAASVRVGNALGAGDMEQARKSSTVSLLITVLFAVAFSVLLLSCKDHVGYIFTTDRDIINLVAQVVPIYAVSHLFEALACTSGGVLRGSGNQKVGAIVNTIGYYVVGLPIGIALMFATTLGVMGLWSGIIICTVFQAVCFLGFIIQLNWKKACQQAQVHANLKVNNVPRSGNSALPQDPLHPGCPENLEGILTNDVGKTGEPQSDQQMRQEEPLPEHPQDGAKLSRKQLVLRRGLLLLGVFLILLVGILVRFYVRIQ

[10] = cited from earlier work
P‐gp = settings: in vitro; at clinically relevant concentrations; cited from earlier work
MATE1 [11] = target: T2, MATE1; settings: in vitro; cited from earlier work
[12] = system: organic anion transporting polypeptide 1B1; settings: in vitro; cited from earlier work
[13] = system: human colon carcinoma‐derived (Caco‐2) cells; settings: no reference given; cited from earlier work
[14] = system: organic anion transporting polypeptide 1B3; settings: in vitro; cited from earlier work
[15] = system: organic anion transporter 4; settings: in vitro; at clinically relevant concentrations; cited from earlier work
cytochrome P450 enzymes = settings: cited from earlier work
[16] = system: organic anion transporter 1; settings: in vitro; at clinically relevant concentrations; cited from earlier work
[17] = study 2, filgotinib 200 mg after multiple doses of rifampin 600 mg vs alone
[18] = study 2, filgotinib + rifampin vs filgotinib alone
[19] = patients with rheumatoid arthritis
[20] = study 1, filgotinib 100 mg with itraconazole 200 mg vs alone
[21] = study 1, filgotinib + itraconazole vs filgotinib alone
[22] = study 3, filgotinib treatment period

Chain of MATE2K (Q86VL8 1-566 isoform Q86VL8-3): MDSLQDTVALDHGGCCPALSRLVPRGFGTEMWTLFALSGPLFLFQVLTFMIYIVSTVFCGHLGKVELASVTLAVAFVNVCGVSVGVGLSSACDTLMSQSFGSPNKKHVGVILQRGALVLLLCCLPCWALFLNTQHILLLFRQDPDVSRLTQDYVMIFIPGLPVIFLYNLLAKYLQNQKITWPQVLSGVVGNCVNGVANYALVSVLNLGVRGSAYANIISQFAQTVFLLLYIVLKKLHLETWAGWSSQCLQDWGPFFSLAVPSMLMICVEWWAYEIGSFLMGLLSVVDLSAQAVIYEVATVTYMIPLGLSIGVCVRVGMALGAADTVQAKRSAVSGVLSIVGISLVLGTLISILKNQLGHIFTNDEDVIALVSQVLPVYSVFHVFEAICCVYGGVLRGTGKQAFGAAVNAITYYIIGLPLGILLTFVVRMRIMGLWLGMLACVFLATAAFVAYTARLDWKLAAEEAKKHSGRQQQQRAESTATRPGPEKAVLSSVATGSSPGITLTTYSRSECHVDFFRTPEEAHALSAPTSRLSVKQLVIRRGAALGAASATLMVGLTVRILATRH

Tmax ([1]; human, plasma, oral): 1.5 h | half-life ([1]; human, plasma, oral): 7.7 h | AUC(0-inf) ([1]; human, plasma, oral, 200 mg): 6960 ng·h/mL | AUC(0-t) ([1]; human, plasma, oral, 200 mg): 6980 ng·h/mL | Cmax ([1]; human, plasma, oral, 200 mg): 2190 ng/mL | Tmax ([1]; human, plasma, oral, 200 mg): 1 h | half-life ([1]; human, plasma, oral, 200 mg): 8.4 h | reduction in AUCinf by rifampin [1, 17]: 27% | reduction in C max by rifampin [1, 17]: 26% | AUCinf %GLSM ratio (90% CI) [1, 18]: 72.7 (69.1, 76.5) % | AUClast %GLSM ratio (90% CI) [1, 18]: 72.7 (69.1, 76.5) % | effect of rifampin on T max and t 1/2 (in words) ([1]; study 2, filgotinib: T max and t 1/2, GS‐829845: Tmax): similar | CL/F ([1]; study 2, single filgotinib 200 mg alone, mean (%CV), N = 14): 30.1 (21.0) L/h | inhibition of OCT2 (in words) ([3]; in vitro data): may inhibit | ratio of maximum unbound plasma concentration over in vitro IC50 against OCT2 [3, 19]: 0.26 | Tmax ([7]; human, plasma, oral): 1 h | half-life ([7]; human, plasma, oral): 6.26 h | AUC(0-inf) ([7]; human, plasma, oral, 100 mg): 2190 ng·h/mL | AUC(0-t) ([7]; human, plasma, oral, 100 mg): 2170 ng·h/mL | Cmax ([7]; human, plasma, oral, 100 mg): 756 ng/mL | Tmax ([7]; human, plasma, oral, 100 mg): 1 h | half-life ([7]; human, plasma, oral, 100 mg): 7.4 h | increase in AUCinf by itraconazole [7, 20]: 45% | increase in C max by itraconazole [7, 20]: 64% | AUCinf %GLSM ratio (90% CI) [7, 21]: 145 (133, 157) % | AUClast %GLSM ratio (90% CI) [7, 21]: 145 (133, 158) % | C max %GLSM ratio (90% CI) [7, 21]: 164 (129, 208) % | effect of itraconazole on pharmacokinetic parameters (in words) ([7]; study 1, filgotinib: Tmax, t1/2, GS‐829845: C max, AUCinf, T max, t 1/2): did not affect | CL/F ([7]; study 1, single filgotinib 100 mg alone, fasting, mean (%CV), N = 13): 48.6 (25.0) L/h | inhibition of MATE2K (in words) (MATE2K; in vitro data): may inhibit | ratio of maximum unbound plasma concentration over in vitro IC50 against MATE2K (MATE2K; [19]): 0.44 | inhibition of MATE1 (in words) (MATE1 [9]; in vitro data): may inhibit | ratio of maximum unbound plasma concentration over in vitro IC50 against MATE1 (MATE1 [9]; [19]): 0.26
SMILES: O=C(Nc1nc2cccc(-c3ccc(CN4CCS(=O)(=O)CC4)cc3)n2n1)C1CC1 [Filgotinib]
primary end point in the induction studies ([2]; 100 mg dose): did not meet the primary end point | primary end points (clinical remission at week 10 and week 58) ([2]; 200 mg dose): met all the primary end points | permeability (BCS) [4]: high permeability | solubility (BCS) [4]: low solubility | signs and symptoms and physical function [5]: significantly improved | metabolism by CES2 to form GS‐829845 (in words) [6]: primarily metabolized | potency on JAK1 over JAK2, JAK3, tyrosine kinase 2, and other kinases (JAK1): greater than five‐fold higher potency | inhibition of breast cancer resistance protein [8]: not inhibitors | tolerability (in words) (Safety assessments; all three studies, alone or with the co‐administered drugs): generally well‐tolerated | subjects with AEs (Safety assessments; study 1, by treatment period, all grade 1, not related to study drug): 7.7% | subjects with at least one graded laboratory abnormality (Safety assessments; study 1, by treatment period): 15% | subjects with at least one graded laboratory abnormality (Safety assessments; study 2, by treatment period): 14% | subjects with AEs (Safety assessments; study 3, by treatment period, all grade 1): 8.3% | subjects with grade 3 decreased lymphocytes and neutrophils (Safety assessments; [22]): 8.3% | subjects with grade 3 laboratory abnormalities (Safety assessments; [22]): 25% | subjects with grade 3 occult blood in urine (Safety assessments; [22]): 17% | subjects with at least one graded laboratory abnormality (Safety assessments; [22]): 75% | AE considered related to study drug (kind of AE) (Safety assessments; study 3, one subject, by treatment phase): headache | administered dose eliminated in the urine as filgotinib and its metabolites [10]: Approximately 87% | dose eliminated in the feces [10]: about 15% | orally administered dose recovered in feces as the named species ([10]; filgotinib: unchanged): ~5% | orally administered dose recovered in urine as the named species ([10]; filgotinib: unchanged): ~ 9% | inhibition of P‐gp (P‐gp): not inhibitors | inhibition of MATE1 (MATE1 [11]): inhibited | inhibition of OATP1B1 [12]: inhibited | efflux in Caco‐2 cells [13]: active efflux | inhibition of OATP1B3 [14]: inhibited | inhibition of organic anion transporter 4 [15]: not inhibitors | drug‐drug interactions (DDIs) liability with cytochrome P450 enzymes (cytochrome P450 enzymes; in vitro and in vivo data): relatively low | substrate of the cytochrome P450 enzymes (cytochrome P450 enzymes; in vitro data, no reference given): not a substrate | inhibition of organic anion transporter 1 [16]: not inhibitors

Source: publication PMC8841438 (Clinical and Translational Science, 2021)
